Experimental data as given in patent publication US5753695A, “Flavilium compounds and method of using” (Biogal Gyogyszergyar RT, priority 1992, dated 1998).

Key:
HIV-1 IIIB = experiment: HIV reverse transcriptase activity / HIV replication in infected MT-4 and H9 human lymphocyte cell-lines; assay type: cell-based, HIV-1 strain IIIB
Experimental: The HIV reverse transcriptase inhibiting activity of compounds of formula (I) of the invention was measured by the method of Hoffman, A. D. et al. described in Virology, Vol. 147, pp. 326-335, 1985.
The measurement results are shown for the model compound 5,7,4'-trihydroxy-4,3',5'-trimethyl-flavilium chloride (hereinafter referred to as "BIOGAL 6") and prepared as described in Example 1 below.
The active agents were tested on MT-4 and H9 human lymphocyte cell-lines infected with the strain HIV-1 IIIB. The cells were infected with 20 TCID50 of the HIV-1 virus.
[…] The active agent was first added to the culture 4 hours before the infection, and then 24, and 48 hours after infection. HIV infected, untreated MT-4 and H9 cells were used, as well as uninfected, untreated cells as a control. The AZT-control was zidovudine (ZDU) sold by Burroughs Wellcome Company under the name Retrovir.
Reverse transcriptase inhibiting activity was determined on 500 μl aliquots from supernatant of the culture and their virus concentration was measured. The results are given in cpm/cm^3 indicating ^3 H-TTP.

CFP/SPF laboratory mice = experiment: Acute toxicity, CFP/SPF laboratory mice; assay type: in vivo; settings: oral doses even as high as 2,000 μg/kg
Experimental: (§1) Acute toxicity examinations on CFP/SPF laboratory mice strains and WISTAR Charles River/SPF laboratory rat strains, orally and intravenously have shown that BIOGAL-6 is nontoxic at oral doses even as high as […].

[1] = test system: WISTAR Charles River/SPF laboratory rat strains; experiment: Acute toxicity, WISTAR Charles River/SPF laboratory rats; assay type: in vivo; settings: oral doses even as high as 2,000 μg/kg
Experimental: as §1

| SMILES | RT activity (HIV-1 IIIB; Table 1, 5 μg/cm^3, 7 day) | RT activity (HIV-1 IIIB; Table 1, 5 μg/cm^3, 10 day) | RT activity (HIV-1 IIIB; Table 1, 5 μg/cm^3, 18 day) | RT activity (HIV-1 IIIB; Table 1, 20 μg/cm^3, 7 day) | RT activity (HIV-1 IIIB; Table 1, 20 μg/cm^3, 10 day) | RT activity (HIV-1 IIIB; Table 1, 20 μg/cm^3, 18 day) | RT activity (HIV-1 IIIB; Table 1, 100 μg/cm^3, 7 day) | RT activity (HIV-1 IIIB; Table 1, 100 μg/cm^3, 10 day) | RT activity (HIV-1 IIIB; Table 1, 100 μg/cm^3, 18 day) | RT activity (HIV-1 IIIB; Table 2, 0.1 μg/cm^3, 7 day) | RT activity (HIV-1 IIIB; Table 2, 0.1 μg/cm^3, 10 day) | RT activity (HIV-1 IIIB; Table 2, 0.1 μg/cm^3, 18 day) | RT activity (HIV-1 IIIB; Table 2, 0.5 μg/cm^3, 7 day) | RT activity (HIV-1 IIIB; Table 2, 0.5 μg/cm^3, 10 day) | RT activity (HIV-1 IIIB; Table 2, 0.5 μg/cm^3, 18 day) | RT activity (HIV-1 IIIB; Table 2, 1.0 μg/cm^3, 7 day) | RT activity (HIV-1 IIIB; Table 2, 1.0 μg/cm^3, 10 day) | RT activity (HIV-1 IIIB; Table 2, 1.0 μg/cm^3, 18 day) | RT activity (HIV-1 IIIB; Table 2, 2.5 μg/cm^3, 7 day) | RT activity (HIV-1 IIIB; Table 2, 2.5 μg/cm^3, 10 day) | other results |
| --- | --- | --- | --- | --- | --- | --- | --- | --- | --- | --- | --- | --- | --- | --- | --- | --- | --- | --- | --- | --- | --- |
| Cc1cn([C@H]2C[C@H](N=[N+]=[N-])[C@@H](CO)O2)c(=O)[nH]c1=O [AZT, azidothymidine, reference compound] | 2.195 cpm/cm^3 | 2.127 cpm/cm^3 | 38.797 cpm/cm^3 | 2.386 cpm/cm^3 | 2.224 cpm/cm^3 | 1.921 cpm/cm^3 | 2.220 cpm/cm^3 | 2.181 cpm/cm^3 | 1.838 cpm/cm^3 | 7.392 cpm/cm^3 | 125.627 cpm/cm^3 | 62.817 cpm/cm^3 | 6.148 cpm/cm^3 | 75.051 cpm/cm^3 | 84.047 cpm/cm^3 | 3.989 cpm/cm^3 | 15.115 cpm/cm^3 | 75.539 cpm/cm^3 | 3.231 cpm/cm^3 | 9.083 cpm/cm^3 | RT activity (HIV-1 IIIB; Table 2, 2.5 μg/cm^3, 18 day): 116.001 cpm/cm^3; RT activity (HIV-1 IIIB; Table 2, 5.0 μg/cm^3, 7 day): 1.724 cpm/cm^3; RT activity (HIV-1 IIIB; Table 2, 5.0 μg/cm^3, 10 day): 3.571 cpm/cm^3; RT activity (HIV-1 IIIB; Table 2, 5.0 μg/cm^3, 18 day): 51.735 cpm/cm^3 |
| Cc1cc(-c2cc(C)c3c(O)cc(O)cc3[o+]2)cc(C)c1O [BIOGAL 6, 5,7,4'-trihydroxy-4,3',5'-trimethyl-flavilium chloride] | 1.795 cpm/cm^3 | 1.228 cpm/cm^3 | 1.198 cpm/cm^3 | 1.748 cpm/cm^3 | 1.626 cpm/cm^3 | 1.300 cpm/cm^3 | 1.666 cpm/cm^3 | 1.300 cpm/cm^3 | 1.359 cpm/cm^3 | 111.035 cpm/cm^3 | 99.813 cpm/cm^3 | 45.535 cpm/cm^3 | 108.846 cpm/cm^3 | 98.150 cpm/cm^3 | 43.804 cpm/cm^3 | 96.638 cpm/cm^3 | 75.917 cpm/cm^3 | 38.595 cpm/cm^3 | 6.231 cpm/cm^3 | 8.938 cpm/cm^3 | effect on HIV (in words) (HIV-1 IIIB; 1.0 μg/cm^3 and below): completely ineffective; effect on HIV replication (in words) (HIV-1 IIIB; 5 μg/cm^3): completely blocked the HIV replication; duration of effect compared to AZT (in words), FIG. 1 (HIV-1 IIIB; 5 μg/cm^3, FIG. 1): long lasting when compared to AZT; effect on HIV production (in words), FIG. 1 (HIV-1 IIIB; 5 μg/cm^3, FIG. 1): completely blocked HIV production; duration of effect on HIV (in words) (HIV-1 IIIB; 2.5 and 5 μg/cm^3): long-lasting; RT activity (HIV-1 IIIB; Table 2, 2.5 μg/cm^3, 18 day): 6.803 cpm/cm^3; RT activity (HIV-1 IIIB; Table 2, 5.0 μg/cm^3, 7 day): 1.478 cpm/cm^3; RT activity (HIV-1 IIIB; Table 2, 5.0 μg/cm^3, 10 day): 1.019 cpm/cm^3; RT activity (HIV-1 IIIB; Table 2, 5.0 μg/cm^3, 18 day): 1.226 cpm/cm^3; acute toxicity (CFP/SPF laboratory mice): nontoxic; acute toxicity [1]: nontoxic |
